# Values of other authors, collected in patent US9463243B2, “Amorphous medicinal fine particles produced by pulsed laser ablation in liquid and the production method thereof” (IMRA AMERICA, INC., priority 2012, dated 2016).
compound,measurement,value
"COc1cc(/C=C/C(=O)CC(=O)/C=C/c2ccc(O)c(OC)c2)ccc1O [Curcumin, curcumin]",water solubility,water-insoluble
